This is an account of results in patent EP0771196B1, “EXCITATORY AMINO ACID RECEPTOR ANTAGONISTS” (ELI LILLY AND COMPANY, priority 1994, dated 1996).

pIC50: −log10 of the molar value.

As usually defined, the pIC50 is the IC50 on a negative log10 scale, so that one unit is a factor of ten. A high value points to a small IC50.

The first experiment deals with metabotropic glutamate receptors. The experiment can be described thus: Displacement of 1S,3R-ACPD-sensitive [3H]glutamate binding to rat brain cell membranes. Conditions: crude membranes of rat forebrain; 10 µM compound. The procedure: The binding of [^3H]glutamate was conducted with crude membranes of rat forebrain as described by Schoepp and True. Schoepp and True, Neuroscience Lett., 145, 100-104 (1992) and True and Schoepp, Society for Neuroscience Abstracts, 19, 470 (1993). IC50 values for the inhibition of [^3H]glutamate binding, or the percent displacement of [^3H]glutamate binding at a 10 µM concentration, of the formula I compound, is shown in Table II.
For `N[C@@](CC(c1ccccc1)c1ccccc1)(C(=O)O)[C@@H]1C[C@H]1C(=O)O` [Example 65, 2R 2-amino-2-(1R,2R-2-carboxycyclopropan-1-yl)-4,4-diphenylbutanoic acid], the “ACPD-Sensitive [^3H]Glutamate Binding % Displacement at 10 µM” value is given as “(45%)”.

Still in this experiment, the particulars now being: crude membranes of rat forebrain; inhibition of [3H]glutamate binding.
In turn, “2R-2- amino-2-(1R,2R-2-carboxycyclopropan-1-yl)-3-(dibenzopyran-4-yl)propanoic acid [Example 74]” showed a pIC50 of 5.38.
The same measure, in the same setting: under `NC(CC(c1ccc(Cl)cc1)c1ccc(Cl)cc1)(C(=O)O)C1CC1C(=O)O` (stereo not drawn) [Example 46, 2SR- and 2RS-2-amino-2-(1SR,2SR-2-carboxycyclopropan-1-yl)-4,4-di(4,4'-dichloro)phenylbutanoic acid] stands 7.11; under `NC(CCc1cc(Cl)cc(Cl)c1)(C(=O)O)[C@H]1C[C@@H]1C(=O)O` (mixture of isomers) [Example 75, 2SR- and 2RS-2-amino-2-(1SR,2SR-2carboxycyclopropan-1-yl)-4-(3,5-dichlorophenyl)butanoic acid], 7.60.
Consider `NC(CCc1ccccc1Cl)(C(=O)O)[C@H]1C[C@@H]1C(=O)O` (mixture of isomers) [Example 23, 2SR- and 2RS-2-amino-2-(1SR,2SR-2-carboxycyclopropan-1-yl)-4-(2-chlorophenyl)butanoic acid], for which the pIC50 is 6.59.
`NC(CCCC(c1ccccc1)c1ccccc1)(C(=O)O)C1CC1C(=O)O` (stereo not drawn) [Example 7, 2SR- and 2RS-2-amino-2-(1SR,2SR-2-carboxycyclopropan-1-yl)-6,6-diphenylhexanoic acid] gave a pIC50 of 5.15.
Turning to `NC(CCc1ccc(F)c(F)c1)(C(=O)O)[C@H]1C[C@@H]1C(=O)O` (mixture of isomers) [Example 78, 2SR- and 2RS-2-amino-2-(1SR,2SR-2-carboxycyclopropan-1-yl)-4-(3,4-difluorophenyl)butanoic acid], the pIC50 is 7.43.
On to `NC(CC1CCC1)(C(=O)O)C1CC1C(=O)O` (stereo not drawn) [Example 40, 2SR- and 2RS-2-amino-2-(1SR,2SR-2-carboxycyclopropan-1-yl)-3-cyclobutylpropanoic acid], for which the pIC50 was 4.53.
`NC(CCC(c1ccccc1)c1ccccc1)(C(=O)O)C1CC1C(=O)O` (stereo not drawn) [Example 6, 2SR- and 2RS-2-amino-2-(1SR,2SR-2-carboxycyclopropan-1-yl)-5,5-diphenylpentanoic acid] had a negative logarithm of the IC50 (pIC50) of 5.15.
With `COc1ccc(CCC(N)(C(=O)O)C2CC2C(=O)O)cc1OC` (stereo not drawn) [Example 33, 2SR- and 2RS-2-amino-2-(1SR,2SR-2-carboxycyclopropan-1-yl)-4-(3,4-dimethoxyphenyl)butanoic acid], the pIC50 is 6.34.
`CCCCC(N)(C(=O)O)C1CC1C(=O)O` (stereo not drawn) [Example 11, 2SR- and 2RS-2-amino-2-(1SR,2SR-2-carboxycyclopropan-1-yl)hexanoic acid]: the pIC50 was 5.85.
For `N[C@](CC1c2ccccc2Oc2ccccc21)(C(=O)O)[C@H]1C[C@@H]1C(=O)O` [Example 72], the pIC50 was 7.85.
Regarding `Cc1ccc(CCC(N)(C(=O)O)[C@H]2C[C@@H]2C(=O)O)cc1` (mixture of isomers) [Example 22, 2SR- and 2RS-2-amino-2-(1SR,2SR-2-carboxycyclopropan-1-yl)-4-(4-methylphenyl)butanoic acid], the pIC50 was 6.23.
Take `COc1cccc(CCC(N)(C(=O)O)C2CC2C(=O)O)c1` (stereo not drawn) [Example 27, 2SR- and 2RS-2-amino-2-(1SR,2SR-2-carboxycyclopropan-1-yl) -4-(3-methoxyphenyl)butanoic acid]: the pIC50 was 7.38.
Still for that read-out and setting: under `CCCCCCCCC(N)(C(=O)O)[C@H]1C[C@@H]1C(=O)O` (mixture of isomers) [Example 13, 2SR- and 2RS-2-amino-2-(1SR,2SR-2-carboxycyclopropan-1-yl)decanoic acid] stands 5.77.
For the compound `NC(CCc1ccc(C(=O)O)cc1)(C(=O)O)[C@H]1C[C@@H]1C(=O)O` (mixture of isomers) [Example 80, 2SR- and 2RS-2-amino-2-(1SR,2SR-2-carboxycyclopropan-1-yl)-4-(4-carboxyphenyl)butanoic acid], the pIC50 is 6.43.
With `Cc1ccccc1CCC(N)(C(=O)O)[C@H]1C[C@@H]1C(=O)O` (mixture of isomers) [Example 20, 2SR- and 2RS-2-amino-2-(1SR,2SR-2-carboxycyclopropan-1-yl)-4-(2-methylphenyl)butanoic acid], the pIC50 was 6.24.
In the case of `NC(COc1ccccc1)(C(=O)O)C1CC1C(=O)O` (stereo not drawn) [Example 39, 2SR- and 2RS-2-amino-2-(1SR,2SR-2-carboxycyclopropan-1-yl)-3-phenoxypropanoic acid], the pIC50 is 4.95.

The test system of a further experiment is Rats. Description: Conditioned active avoidance model. Conditions: 0, 1, 3, 10 and 30mg/kg, i.p. 20 minutes prior to testing. The format is in vivo. An excerpt: This model was developed in the early 50s and 60s (Pfeiffer & Jenney, Ann. N.Y. Acad. Sci., 66:[…], 1957; Maffii, J. Pharm. Pharmacol., 11: 129-139, 1959; Cook & Weidley, Ann; N.Y. Acad. Sci., 66: […], 1957; Janke, Handbook of Experimental Pharmacology, Vol. 55/I, New York: Plenum Press, 1978) and is still the primary model used to screen compounds for antipsychotic efficacy.
Rats were individually placed in a sound attenuated, two compartment test chamber. Active avoidance testing consisted of 20 trials each day. On each trial a light (130 v.) and a sound (85 dbA) were delivered simultaneously and 5 seconds later a 5 mA shock was delivered to the floor of the chamber. After 5 seconds the footshock, the light, and the sound were terminated. The animals learned to move from one side of the chamber to the other side when the light and sound cues were presented to avoid shock (avoidance responding) or the rat moved when the shock was administered (escape). Data were tabulated as mean percent escape or mean percent to avoidance for each test day. Prior to drug testing all animals were trained to successfully avoid shock delivery on 90% of trials.
This profile on conditioned avoidance is indicative of antipsychotic efficacy.
Take `N[C@](CC1c2ccccc2Oc2ccccc21)(C(=O)O)[C@H]1C[C@@H]1C(=O)O` [Example 72]: the avoidance responding entry is “dose related decrease in avoidance responding” and the escape responding entry is “not affecting escape responding”.

The experiment is the same for the next values; noted with them: summary statement.
On to `N[C@](CC1c2ccccc2Oc2ccccc21)(C(=O)O)[C@H]1C[C@@H]1C(=O)O` [Example 72], for which the “activity in the conditioned active avoidance model” value is listed as “active”.

Another experiment deals with metabotropic glutamate receptors. Description: Displacement of 1S,3R-ACPD-sensitive [3H]glutamate binding to rat brain cell membranes. To be noted: crude membranes of rat forebrain; 0.1 µM compound.
Consider `NC(CCc1cccc(F)c1)(C(=O)O)[C@H]1C[C@@H]1C(=O)O` (mixture of isomers) [Example 81, 2SR- and 2RS-2-amino-2-(1SR,2SR-2-carboxycyclopropan-1-yl)-4-(3-fluorophenyl)butanoic acid], for which the “ACPD-Sensitive [^3H]Glutamate Binding % Displacement @ 0.1 µM” value was “(57% @ 0.1 µM)”.

The experiment is the same for the next values; noted with them: crude membranes of rat forebrain; 1 µM compound.
`NC(CC(Cc1ccccc1)Cc1ccccc1)(C(=O)O)[C@H]1C[C@@H]1C(=O)O` (mixture of isomers) [Example 51, 2SR- and 2RS-2-amino-2-(1SR,2SR-2-carboxycyclopropan-1-yl)-4-benzyl-5-phenylpentanoic acid]: the “ACPD-Sensitive [^3H]Glutamate Binding % Displacement @ 1 µM” value is reported as “(15% @ 1 µM)”.
